≈ marks a conversion by molar mass, not a printed value. Read-outs that look alike come from different tables or passages of the source.
What was measured:
HK cells, transporter 28 = assay: HCHT imaging: inhibition of cytosolic delivery of CTO transporter 28; type: cell-based, Human; details: inhibitor 1 h; for IC15 / IC50: Homo sapiens; for IC15: read-out: MIC (concentration needed to reach 15% inhibition), transporter 28 5 μM
HK cells, transporter 31 [1] = assay: HCHT imaging: inhibition of cytosolic delivery of ETP transporter 31; type: cell-based, Human; details: inhibitor 1 h; for IC15: read-out: MIC (concentration needed to reach 15% inhibition), transporter 31 10 μM
Method in brief: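 HeLa Kyoto cells grown 24 h in FluoroBrite DMEM + 10% FBS on 96-well black plates were exposed to serially diluted inhibitors for 1 h at 37 °C, then given fluorescent transporter 31 at 10 μM for 30 min, either after washing the inhibitor out (pre-incubation) or with it still present (co-incubation). Cytosolic delivery was then scored by automated HCHT live-cell imaging with Hoechst 33342 and PI staining.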

trypsin = assay: Trypsin inhibition (preliminary, not shown); type: biochemical; details: 50 μM; preliminary results
cathepsin L = cathepsin L (Homo sapiens, UniProt P07711); assay: Cathepsin L inhibition (preliminary, not shown); type: biochemical; details: 50 μM; preliminary results
cathepsin B = cathepsin B (Homo sapiens, UniProt P07858); assay: Cathepsin B inhibition (preliminary, not shown); type: biochemical; details: 50 μM; preliminary results
HK cells, transporter 31 [2] = details: transporter 31 10 μM, pre-incubation (P), cited from earlier work; for IC50: read-out: IC50 (concentration needed to reach 50% inhibition)
in vitro = details: human
HeLa Kyoto cells = details: with transporter 31; pre-incubation (P); cited from earlier work
[3] = Decarboxylation/stability of cyclic carbonate 11 in deuterated buffer; type: physicochemical; details: for t50 (decarboxylation of 11 to 12): deuterated buffer/DMSO-d6 95:5, rt
Description: Figure 3 (A) Comparison of ring-opening rate constants (k^O) for the exchange reactions of 2, 3, and 11–18 with 10 (Table 1); (a) deuterated buffer/DMSO-d6 95:5, rt, t50 = <15 min, 84 min, 18 h, and ≫24 h at pD 7.9, 6.7, 5.4, and 4.7, respectively. (B) Dynamic covalent ring opening of CTO 3 and thiol 10 to give product 9. (C) Original kinetic data for the equilibration of 3 with 10 at pD 2.7 in deuterated phosphate buffer/DMSO-d6 9:1. Gold triangles: 3; purple circles: 9; filled diamonds: 10; empty diamonds: homo-disulfide of 10. (D) Dependence of K (filled circles) and rate constants (relative, k at 90% D2O as 1, k^O filled diamonds, k^C empty diamonds) for 3 with 10 at pD 2.7 (estimate) on solvent polarity. (E–G) Fluoride complexes of 1,2-dithiane 1,1-dioxide (E), 1,2-dithiane 1-oxide (F), and 1,2-dithiane (G), calculated with M06-2X/6-311++G** (green: F^–, yellow: S, red: O, gray: C, white: H). (H, I) Chloride complexes of 3 (H) and 1 (I, green: Cl^–, in parentheses: bond length for F^–). (J) Fragmentation of 11 with 10; (b) 10, DMSO-d6, rt.
The strained cyclic carbonate 11 was considered to accelerate CTO opening and further stabilize the opened form (entry 12). However, at pD 7.9, carbonate 11 decarboxylated within 15 min to CTO alkene 12. This degradation decelerated with decreasing pD to afford stable carbonate 11 for at least 1 day at pD 4.7 (Figure 3A). Ring opening of 11 was too fast even at pD 2.7, it proceeded to near completion with a >100× higher rate than 3. Decarboxylated alkene 12 reacted also very fast, the apparently lower rate is the consequence of more favorable ring closure back to 12 due to preorganization by the cis alkene (entry 13). The alternative Michael addition of thiol 10 to alkene 12 was not observed (Figure S12).

[4] = read-out: IC50 (concentration needed to reach 50% inhibition), transporter 28 5 μM, pre-incubation (P)
[5] = Homo sapiens, 1 h, read-out: IC50 (concentration needed to reach 50% inhibition), transporter 31 10 μM, co-incubation (C)
[6] = Homo sapiens, 1 h, co-incubation (C)
[7] = transporter 31 10 μM, co-incubation (C)
[8] = transporter 28 5 μM, co-incubation (C)

Chain of cathepsin L (P07711 114-333, species assumed): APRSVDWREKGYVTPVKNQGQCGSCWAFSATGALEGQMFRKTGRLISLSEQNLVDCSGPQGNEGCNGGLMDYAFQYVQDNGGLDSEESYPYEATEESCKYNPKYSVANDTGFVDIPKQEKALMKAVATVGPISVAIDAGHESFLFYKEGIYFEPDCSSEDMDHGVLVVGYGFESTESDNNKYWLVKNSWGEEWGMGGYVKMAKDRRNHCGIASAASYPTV

What does the source list for O=S1(=O)C[C@H](O)[C@H](O)CS1 (stereo in doubt) [Compound 3, (4S,5R)-4,5-dihydroxy-1,2-dithiane-1,1-dioxide]?
IC15 (HK cells, transporter 28; 1 h, pre-incubation (P)): 5 µM; IC50 (HK cells, transporter 28; [4]): 60 µM; IC50 (HK cells, transporter 31 [1]; [5]): 35 µM; IC15 (HK cells, transporter 31 [1]; [6]): 3 µM; MIC (concentration needed to reach 15% inhibition) (HK cells, transporter 31 [1]; [7]): 3 µM; inhibition of trypsin (in words) (trypsin): inhibits; inhibition of cathepsin L (in words) (cathepsin L): not L; inhibition of cathepsin B (in words) (cathepsin B): inhibits; IC50 (HK cells, transporter 31 [2]): > 1000 µM; MIC (concentration needed to reach 15% inhibition) (HK cells, transporter 31 [2]): 200 µM (≈ 36.8 µg/mL); viability at 7 h, 50 µM (in vitro): 81%; RV50 (concentration needed to lower relative viability by 50%) (HeLa Kyoto cells): 1300 µM

With [O-][S+]1C[C@@H](O)[C@@H](O)CS1 (stereo partly shown) [Compound 2] as the compound, how does the IC15 (HK cells, transporter 28; 1 h, pre-incubation (P)) read?
Its IC15 is over 50 µM.

What about the IC50 (HK cells, transporter 28; [4]) of the same compound?
Its IC50 is over 100 µM.

What about the “MIC (concentration needed to reach 15% inhibition)” value (HK cells, transporter 28; transporter 28 5 μM, pre-incubation (P)) of the same compound?
The value was over 50 µM.

What about the IC50 (HK cells, transporter 31 [2]) of the same compound?
Its IC50 is over 5000 µM.

And the “MIC (concentration needed to reach 15% inhibition)” value (HK cells, transporter 31 [2])?
The value was 800 µM (≈ 135 µg/mL).

What about the “RV50 (concentration needed to lower relative viability by 50%)” value (HeLa Kyoto cells) of the same compound?
Its value is 4400 µM.

Which “t50 (decarboxylation of 11 to 12)” value ([3]; pD 4.7) does the source give for O=C1O[C@H]2CSS(=O)(=O)C[C@H]2O1 [Compound 11] here?
Its value is over 24 h.

What about the “t50 (decarboxylation of 11 to 12)” value ([3]; pD 5.4) of the same compound?
Its value is 18 h.

What about the “t50 (decarboxylation of 11 to 12)” value ([3]; pD 6.7) of the same compound?
The value was 1.4 h.

And the “t50 (decarboxylation of 11 to 12)” value ([3]; pD 7.9)?
Its value is under 0.25 h.

What about the time stable ([3]; pD 4.7) of the same compound?
The time stable was “at least 1 day”.

What about the “time of decarboxylation to CTO alkene 12” value ([3]; pD 7.9) of the same compound?
The value was at most 15 min.

And the IC50 (HK cells, transporter 28; 1 h, read-out: IC50 (concentration needed to reach 50% inhibition), transporter 28 5 μM, co-incubation (C))?
Its IC50 is 70 ± 20 µM.

And the IC15 (HK cells, transporter 28; 1 h, co-incubation (C))?
Its IC15 is under 1 µM.

What about the “MIC (concentration needed to reach 15% inhibition)” value (HK cells, transporter 28; [8]) of the same compound?
Its value is under 1 µM.

What about the IC50 (HK cells, transporter 31 [1]; [5]) of the same compound?
The IC50 was over 50 µM.

And the IC15 (HK cells, transporter 31 [1]; [6])?
The IC15 was under 5 µM.

What about the IC15 (HK cells, transporter 31 [1]; Homo sapiens, 1 h, pre-incubation (P)) of the same compound?
The IC15 was 1.5 µM.

And the IC50 (HK cells, transporter 31 [1]; Homo sapiens, read-out: IC50 (concentration needed to reach 50% inhibition), transporter 31 10 μM, pre-incubation (P))?
The IC50 was 9 µM.

What about the “MIC (concentration needed to reach 15% inhibition)” value (HK cells, transporter 31 [1]; [7]) of the same compound?
Its value is under 5 µM.

And the viability at 7 h, 50 µM (in vitro)?
The viability at 7 h, 50 µM was 84%.

With O=S1(=O)C=C[C@@H](O)CS1 [Compound 12] as the compound, how does the IC15 (HK cells, transporter 28; 1 h, co-incubation (C)) read?
Its IC15 is 4.8 µM.

What about the IC50 (HK cells, transporter 28; read-out: IC50 (concentration needed to reach 50% inhibition), transporter 28 5 μM, co-incubation (C)) of the same compound?
Its IC50 is 60 µM.

What about the “MIC (concentration needed to reach 15% inhibition)” value (HK cells, transporter 28; [8]) of the same compound?
The value was 5 µM.

What about the IC50 (HK cells, transporter 31 [1]; [5]) of the same compound?
Its IC50 is 7.2 ± 0.9 µM.

And the IC15 (HK cells, transporter 31 [1]; [6])?
Its IC15 is under 1 µM.

And the IC50 (HK cells, transporter 31 [1]; read-out: IC50 (concentration needed to reach 50% inhibition), transporter 31 10 μM, co-incubation (C))?
The IC50 was 7 µM.

And the “MIC (concentration needed to reach 15% inhibition)” value (HK cells, transporter 31 [1]; [7])?
The value was under 1 µM.

What about the “inhibition of trypsin (in words)” value (trypsin) of the same compound?
Its value is “inhibit only cathepsin B”.

What about the “inhibition of cathepsin L (in words)” value (cathepsin L) of the same compound?
Its value is “inhibit only cathepsin B”.

And the “inhibition of cathepsin B (in words)” value (cathepsin B)?
The value was “inhibit only cathepsin B”.

From article PMC9088311, “Cyclic Thiosulfonates for Thiol-Mediated Uptake: Cascade Exchangers, Transporters, Inhibitors” (JACS Au, 2022)
